Data set [1] has as its system DBTRG-05MG. Kind of data set: Induction of apoptosis in human DBTRG-05MG cells assessed as cleaved caspace-3 expression at 112.4 uM after 48 hrs by Western blot analysis (reference value: 1). Type of data set: functional. A general note: A western blot detects proteins with antibodies after separation by electrophoresis.
Data set [2] concerns RG2. Kind of data set: Induction of cell cycle arrest in rat RG2 cells assessed as accumulation at G0/G1 phase at 112.4 uM after 6 hrs by propidium iodide staining based flow cytometric analysis (reference value: 57.81 +/- 1.9%). Type of data set: functional.
Data set [3] is described as follows: Effect on JNK expression in human DBTRG-05MG cells at 112.4uM after 48 hrs by Western blot analysis (reference value: 1). The data set is classed as functional.
The nature of data set [4]: Synergistic cytotoxicity against rat CTX TNA2 cells assessed as synergistic effect index at 89.9 uM after 48 hrs in presence of 309 uM TMZ by MTT assay. Conditions: ctx tna2, 48 h. The data set is classed as cell-based. On the technique in general: Tetrazolium assays rely on reduction of a dye to a coloured formazan, in cell work by metabolically active cells.
Data set [5] is described as follows: Synergistic cytotoxicity against rat CTX TNA2 cells assessed as synergistic effect index at 89.9 uM after 48 hrs in presence of 206 uM TMZ by MTT assay. Type of data set: cell-based. To be noted: ctx tna2, 48 h.
Data set [6] has as its system DBTRG-05MG. Put plainly: Induction of cell cycle arrest in human DBTRG-05MG cells assessed as accumulation at G2/M phase at 112.4 uM after 48 hrs in presence of TMZ by propidium iodide staining based flow cytometric analysis (reference value: 30.08 +/- 0.1%). The data set is classed as functional. In general terms: A flow cytometer gives signals particle by particle.

Data set [7] has as its system DBTRG-05MG. Kind of data set: Synergistic cytotoxicity against human DBTRG-05MG cells assessed as synergistic effect index at 134.9 uM after 48 hrs in presence of 206 uM TMZ by MTT assay. The data set is classed as functional.
A short description of data set [8]: Effect on ERK expression in rat RG2 cells at 112.4uM after 48 hrs in presence of TMZ by Western blot analysis (reference value: 1). The data set is classed as functional.
Data set [9] is described as follows: Synergistic cytotoxicity against rat CTX TNA2 cells assessed as synergistic effect index at 112.4 uM after 48 hrs in presence of 515.1 uM TMZ by MTT assay. Type of data set: cell-based. Conditions: ctx tna2, 48 h.
In data set [10] the test system is DBTRG-05MG. Kind of data set: Synergistic cytotoxicity against human DBTRG-05MG cells assessed as combination index at 112.4 uM after 48 hrs in presence of 103 uM TMZ by MTT assay. The data set is classed as functional.
Data set [11] concerns RG2. Put plainly: Induction of apoptosis in rat RG2 cells assessed as increase in DNA fragmentation at 112.4 uM after 48 hrs in presence of TMZ by TUNEL assay. The data set is classed as functional, cell-based.
Data set [12] concerns DBTRG-05MG. Kind of data set: Synergistic cytotoxicity against human DBTRG-05MG cells assessed as combination index at 134.9 uM after 48 hrs in presence of 412.1 uM TMZ by MTT assay. Type of data set: functional.
For data set [13], the system named is DBTRG-05MG. Kind of data set: Synergistic cytotoxicity against human DBTRG-05MG cells assessed as combination index at 134.9 uM after 48 hrs in presence of 515.1 uM TMZ by MTT assay. The data set is classed as functional.
The subject of data set [14] is RG2. Kind of data set: Synergistic cytotoxicity against rat RG2 cells assessed as combination index at 89.9 uM after 48 hrs in presence of 412.1 uM TMZ by MTT assay. The data set is classed as functional.
The nature of data set [15]: Synergistic cytotoxicity against rat CTX TNA2 cells assessed as combination index at 134.9 uM after 48 hrs in presence of 515.1 uM TMZ by MTT assay. The data set is classed as cell-based. To be noted: ctx tna2, 48 h.
Data set [16] deals with RG2. Put plainly: Induction of apoptosis in rat RG2 cells assessed as increase in chromatin condensation at 112.4 uM after 48 hrs by TUNEL assay. The data set is classed as functional, cell-based.
Data set [17] relates to DBTRG-05MG. Put plainly: Induction of apoptosis in human DBTRG-05MG cells assessed as Bax expression at 112.4 uM after 48 hrs by Western blot analysis (reference value: 1). Type of data set: functional.
Data set [18] deals with RG2. Kind of data set: Synergistic cytotoxicity against rat RG2 cells assessed as synergistic effect index at 89.9 uM after 48 hrs in presence of 206 uM TMZ by MTT assay. The data set is classed as functional.
In data set [19] the test system is RG2. Put plainly: Induction of cell cycle arrest in rat RG2 cells assessed as accumulation at G2/M phase at 112.4 uM after 24 hrs by propidium iodide staining based flow cytometric analysis (reference value: 20.04 +/- 0.55%). The data set is classed as functional.
Data set [20] can be described thus: Synergistic cytotoxicity against rat CTX TNA2 cells assessed as synergistic effect index at 134.9 uM after 48 hrs in presence of 206 uM TMZ by MTT assay. The data set is classed as cell-based. To be noted: ctx tna2, 48 h.
In data set [21] the test system is RG2. Put plainly: Induction of apoptosis in rat RG2 cells assessed as Bcl2 expression at 112.4 uM after 48 hrs in presence of TMZ by Western blot analysis (reference value: 1). Type of data set: functional.
Data set [22] has as its system DBTRG-05MG. Put plainly: Induction of cell cycle arrest in human DBTRG-05MG cells assessed as CDK4 expression at 112.4 uM after 48 hrs by Western blot analysis (reference value: 1). The data set is classed as functional.
Data set [23] deals with DBTRG-05MG. Put plainly: Induction of DNA damage in human DBTRG-05MG cells assessed as Chk1 phosphorylation at ser345 residues at 112.4 uM after 48 hrs in presence of TMZ by Western blot analysis (reference value: 1). Type of data set: functional.
The test system of data set [24] is RG2. Put plainly: Induction of cell cycle arrest in rat RG2 cells assessed as accumulation at G0/G1 phase at 112.4 uM after 12 hrs by propidium iodide staining based flow cytometric analysis (reference value: 57.81 +/- 1.9%). Type of data set: functional.
Data set [25] can be described thus: Synergistic cytotoxicity against rat CTX TNA2 cells assessed as synergistic effect index at 112.4 uM after 48 hrs in presence of 309 uM TMZ by MTT assay. Type of data set: cell-based. Conditions: ctx tna2, 48 h.
For data set [26], the system named is DBTRG-05MG. Put plainly: Synergistic cytotoxicity against human DBTRG-05MG cells assessed as combination index at 89.9 uM after 48 hrs in presence of 412.1 uM TMZ by MTT assay. The data set is classed as functional.
The test system of data set [27] is DBTRG-05MG. Kind of data set: Induction of cell cycle arrest in human DBTRG-05MG cells assessed as accumulation at G0/G1 phase at 112.4 uM after 24 hrs in presence of TMZ by propidium iodide staining based flow cytometric analysis (reference value: 47.16 +/- 1.55%). Type of data set: functional.
The subject of data set [28] is DBTRG-05MG. Put plainly: Induction of cell cycle arrest in human DBTRG-05MG cells assessed as p21 expression at 206 uM after 48 hrs by Western blot analysis (reference value: 1). Type of data set: functional.
Data set [29] relates to DBTRG-05MG. Kind of data set: Induction of cell cycle arrest in human DBTRG-05MG cells assessed as accumulation at G0/G1 phase at 206 uM after 24 hrs by propidium iodide staining based flow cytometric analysis (reference value: 47.16 +/- 1.55%). Type of data set: functional.
Data set [30] deals with DBTRG-05MG. Kind of data set: Induction of cell cycle arrest in human DBTRG-05MG cells assessed as accumulation at S phase at 206 uM after 24 hrs by propidium iodide staining based flow cytometric analysis (reference value: 22.76 +/- 1.56%). Type of data set: functional.
The target in data set [31] is MAP kinase p38 (Homo sapiens) (UniProt O15264+Q15759+Q16539+P53778). Kind of data set: Inhibition of p38 phosphorylation at Tyr182 residues in human DBTRG-05MG cells at 206 uM after 48 hrs by Western blot analysis (reference value: 1). Type of data set: cell-based.
Data set [32] relates to RG2. Kind of data set: Induction of DNA damage in rat RG2 cells assessed as Chk1 phosphorylation at ser345 at 206 uM after 48 hrs by Western blot analysis (reference value: 1). Type of data set: functional.
Data set [33] relates to RG2. Kind of data set: Induction of cell cycle arrest in rat RG2 cells assessed as CyclinA expression at 206 uM after 48 hrs by Western blot analysis (reference value: 1). Type of data set: functional.
Data set [34] is described as follows: Effect on ERK expression in rat RG2 cells at 206 uM after 48 hrs by Western blot analysis (reference value: 1). The data set is classed as functional.

The source of these data is ChEMBL document CHEMBL4699511, “Cedrol, a Sesquiterpene Alcohol, Enhances the Anticancer Efficacy of Temozolomide in Attenuating Drug Resistance via Regulation of the DNA Damage Response and MGMT Expression” (J Nat Prod, 2020).

Active and inactive are the calls of the source. The calls are words filed in the database; no cut-off is given here.

Turning to `C[C@@H]1CC[C@H]2C(C)(C)[C@H]3C[C@@]12CC[C@@]3(C)O` [CEDROL], the “fold change (FC)” value was found to be 2.2 in the data set on DBTRG-05MG [1]; 0.8 in data set [3]; 0.7 in data set [8]; 1.3 in the data set on DBTRG-05MG [17]; 0.9 in the data set on RG2 [21]; 1 with DBTRG-05MG [22]. The “fold change (FC)” value in the data set with DBTRG-05MG [23] came out at 1.4. The Activity came out at 60.95% with RG2 [2]; 38.26% with DBTRG-05MG [6]; 18.42% in the data set with RG2 [19]; 64.98% with RG2 [24]; 48.93% in the data set with DBTRG-05MG [27]. Also, the Activity_index is 0.49 in [4]; 0.39 in [5]; 0.88 in the data set with DBTRG-05MG [7]; 0.7 in data set [9]; 0.69 with RG2 [18]; 0.43 in data set [20]. Besides, the Activity_index in data set [25] was determined as 0.51. In addition, the CI in the data set with DBTRG-05MG [10] amounted to 0.56; in the data set on DBTRG-05MG [12], 0.6; in the data set with DBTRG-05MG [13] it was 0.68; in the data set with RG2 [14] it was 1.34; in data set [15] it was 0.88; with DBTRG-05MG [26], 0.8. The outcome with RG2 [11] and in the data set on RG2 [16] was Active.

`Cn1nnc2c(C(N)=O)ncn2c1=O` [TEMOZOLOMIDE]: the “fold change (FC)” value in the data set with DBTRG-05MG [28] was found to be 2.1; in [31], 1.2; in the data set on RG2 [32], 1.8; in the data set on RG2 [33], 1.9; in data set [34] it was 1.1. For the same compound, the results for the Activity with DBTRG-05MG [29] and with DBTRG-05MG [30] were 31.03% and 25.43%, respectively.
